Data on six compounds can be found in patent US6300353A, “Azoles for treatment of fungal infections” (Basilea Pharmaceutica AG, a Swiss Company, priority 1998, dated 2001).

Series [1] in a line: Conversion of compounds of formula (I') to compounds of formula (II) in human plasma. In kind it is in vitro ADME. To be noted: 37° C.; for remaining at 5 min / metabolised at 5 min: incubation time 5 min; for remaining at 5 min: read-out: Observed (%) Comp. (I'); for metabolised at 5 min: read-out: Observed (%) Compound (II). As for the experimental part: In addition, the azole of formula I' are chemically stable in aqueous solution at room temperature more than three days, but are efficiently converted into compounds of formula (II) in either mouse, rat, monkey or human plasma. The conversion of representatives of the new azole compounds of the general formula (I') to compounds of formula (II) in human plasma are shown in Table 4. The compounds of formula (I') were incubated with human plasma at a concentration of 10.quadrature.g/ml at 37° C. for up to 20 min.

The nature of series [2]: physchem. As to conditions: water.
The test system of series [3] is Candida albicans. Description: In vivo efficacy, systemic candidiasis model. To be noted: in Rattus norvegicus, 336 h.
The subject of series [4] is Aspergillus fumigatus. Description: In vivo efficacy, systemic aspergillosis model. To be noted: in Rattus norvegicus, 336 h.
Series [5] relates to Aspergillus fumigatus. The series is described as follows: In vivo efficacy, pulmonary aspergillosis model. As to conditions: in Rattus norvegicus, 336 h.
The target of series [6] is CYP2C9 (Homo sapiens, UniProt P11712). The series is described as follows: In vitro P450 inhibitory activity (CYP2C9, tolbutamide 4-hydroxylation), human liver microsomes.
Sequence of CYP2C9 (P11712 whole entry): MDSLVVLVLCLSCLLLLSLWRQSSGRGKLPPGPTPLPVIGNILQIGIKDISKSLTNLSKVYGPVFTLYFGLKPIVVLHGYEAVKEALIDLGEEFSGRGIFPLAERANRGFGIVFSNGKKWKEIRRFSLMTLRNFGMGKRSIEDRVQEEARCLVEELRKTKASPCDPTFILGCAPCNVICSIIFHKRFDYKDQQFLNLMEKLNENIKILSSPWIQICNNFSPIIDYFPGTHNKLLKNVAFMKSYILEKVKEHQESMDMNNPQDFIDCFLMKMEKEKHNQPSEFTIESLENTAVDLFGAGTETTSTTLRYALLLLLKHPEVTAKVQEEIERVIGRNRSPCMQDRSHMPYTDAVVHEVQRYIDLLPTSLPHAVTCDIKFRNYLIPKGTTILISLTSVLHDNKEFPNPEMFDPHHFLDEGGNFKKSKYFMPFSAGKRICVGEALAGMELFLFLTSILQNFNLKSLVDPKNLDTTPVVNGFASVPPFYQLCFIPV
Protocol: Each azole compound at different concentrations was incubated with a specific substrate for each CYP, human liver microsomes and NADPH at 37° C. […] The substrate concentrations and incubation conditions were as follows:
The target in series [7] is CYP3A4 (Homo sapiens, UniProt P08684). Description: In vitro P450 inhibitory activity (CYP3A4, midazolam 1-hydroxylation), human liver microsomes. Type of series: in vitro ADME. To be noted: midazolam 10 μM, 10 min, read-out: P450 inhibition IC50, CYP 3A4. In general terms: Liver microsomes are vesicles of endoplasmic reticulum, rich in cytochrome P450 enzymes.
Sequence of CYP3A4 (P08684 whole entry): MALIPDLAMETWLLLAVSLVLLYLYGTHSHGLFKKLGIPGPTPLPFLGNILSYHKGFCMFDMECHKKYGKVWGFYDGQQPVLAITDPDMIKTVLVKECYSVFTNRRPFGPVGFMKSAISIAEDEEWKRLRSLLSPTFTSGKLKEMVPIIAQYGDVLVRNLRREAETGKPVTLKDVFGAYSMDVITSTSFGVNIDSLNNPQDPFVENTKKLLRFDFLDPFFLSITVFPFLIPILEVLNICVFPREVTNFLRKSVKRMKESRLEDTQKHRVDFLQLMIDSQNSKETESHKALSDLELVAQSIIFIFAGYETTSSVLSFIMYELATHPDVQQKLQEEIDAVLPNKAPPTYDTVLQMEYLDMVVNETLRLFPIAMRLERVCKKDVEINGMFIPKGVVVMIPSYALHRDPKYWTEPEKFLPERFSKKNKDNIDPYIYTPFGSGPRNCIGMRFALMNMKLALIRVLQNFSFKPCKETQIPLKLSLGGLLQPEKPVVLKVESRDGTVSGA
[8] abbreviates: po, read-out: Effective dose 50% (ED50), systemic candidiasis, p.o.
[9] abbreviates: iv, read-out: Effective dose 50% (ED50), systemic aspergillosis, i.v.
Where [10] appears, read: iv, read-out: Effective dose 50% (ED50), pulmonary aspergillosis, i.v.

Broadly, the half-life is the time needed for the level to fall by half in the phase considered. The low end stands for rapid decline, the high end for slow decline. As usually defined, the solubility is how much of the substance goes into solution per volume. Read a low solubility as little dissolved substance. In general, ED50 refers to the dose that gives a 50% effect, or the effect in half of the subjects. By IC50 is commonly meant the concentration that gives 50% inhibition.

Like-named read-outs stand apart in the source and are kept apart here.

`CNCC(=O)Oc1c(C)cc(C[n+]2cnn(C[C@](O)(c3cc(F)ccc3F)[C@@H](C)c3nc(-c4ccc(C#N)cc4)cs3)c2)cc1C.[Br-]` [Example 1, 1-{(2R,3R)-3-[4-(4-cyano-phenyl)-thiazol-2-yl]-2-(2,5-difluoro-phenyl)-2-hydroxy-butyl}-4-(3,5-dimethyl-4-methylaminoacetoxy-benzyl)-1H-[1,2,4]triazol-4-ium bromide] yielded a half-life in series [1] of less than 1 min. For the same compound, the remaining at 5 min in series [1] was less than 5%. Also, the metabolised at 5 min in series [1] is 96%. The compound further yielded a solubility in series [2] of 22 mg/mL. For the same compound, the ED50 in series [3] (iv, read-out: Effective dose 50% (ED50), systemic candidiasis, iv.) is 5.3 µmol/kg; in series [3] (setting [8]), 5.3 µmol/kg; in series [4] (setting [9]) it was 3 µmol/kg; in series [4] (po, read-out: Effective dose 50% (ED50), systemic aspergillosis, p.o.) it was 5.8 µmol/kg; in series [5] (setting [10]) it was 8 ± 4.2 µmol/kg; in series [5] (po, read-out: Effective dose 50% (ED50), pulmonary aspergillosis, p.o.), 7.4 ± 3.8 µmol/kg.
Take `CNCC(=O)Oc1c(C)cc(C[n+]2cnn(C[C@](O)(c3cc(F)c(F)cc3F)[C@@H](C)c3nc(-c4ccc(C#N)cc4)cs3)c2)cc1C.Cl.[Br-]` [Example 3, 1-[(2R,3R)-3-[4-(4-cyanophenyl)thiazol-2-yl]-2-hydroxy-2-(2,4,5-trifluorophenyl)butyl]-4-(3,5-dimethyl-4-methylaminoacetoxybenzyl)-1H-[1,2,4]triazol-4-ium bromide hydrochloride]: in series [1], the half-life was less than 1 min, the remaining at 5 min is less than 5% and the metabolised at 5 min came out at 89%. Besides, the solubility in series [2] is greater than 7 mg/mL.
On to `C[C@@H](c1nc(-c2ccc(C#N)cc2)cs1)[C@](O)(Cn1cncn1)c1cc(F)ccc1F` [Example 4], for which the IC50 in series [6] came to 35.1 µM.
On to `C[C@@H](c1nc(-c2ccc(C#N)cc2)cs1)[C@](O)(Cn1cncn1)c1cc(F)c(F)cc1F` [Example 5], for which the IC50 in series [7] worked out at 23 µM; in series [6], 18.4 µM.
Regarding `OC(Cn1cncn1)(Cn1cncn1)c1ccc(F)cc1F` [Fluconazole, reference compound], the ED50 in series [3] (setting [8]) is 1.4 µmol/kg.
`CCC(C)n1ncn(-c2ccc(N3CCN(c4ccc(OCC5COC(Cn6cncn6)(c6ccc(Cl)cc6Cl)O5)cc4)CC3)cc2)c1=O` (stereo not shown) [Itraconazole, reference compound]: the ED50 in series [3] (setting [8]) amounted to 3.9 ± 2.2 µmol/kg; in series [4] (setting [9]), 4 µmol/kg; in series [5] (setting [10]), 2 ± 1.1 µmol/kg. Also, half-maximal inhibition in series [6] (IC50) required 25.7 µM.
